Read-outs that look alike come from different tables or passages of the source.

As usually defined, the IC50 is the concentration needed to halve the response being measured.

The target in one series is T1, hERG channel (Homo sapiens, UniProt Q12809).
T1 construct: expressed in transfected cells
The experiment in a line: hERG electrophysiology, automated whole-cell patch clamp (Patchliner). It is filed as cell-based. How it is done:
(§1) All compounds were dissolved in DMSO at 30 mM.
The pulse frequency was 0.3 Hz.
Data were sampled at 10 kHz without filtering.
Background: The hERG channel carries a current that helps repolarise heart muscle cells.

Another series addresses T2, Kv1.3 potassium channel (Homo sapiens, UniProt P22001).
T2 construct: expressed in transfected cells
Briefly: Kv1.3 potassium channel blocker activity, automated whole-cell patch clamp (Patchliner). It is filed as cell-based. As to conditions: CHO-K1 cells stably expressing Kv1.3; whole cell current inhibition; read-out: Kvl.3 IC50. How it is done: This assay is used to evaluate the disclosed compounds' activities as Kv1.3 potassium channel blockers.
CHO-K1 cells stably expressing Kv1.3 were grown in DMEM containing 10% heat-inactivated FBS, 1 mM Sodium Pyruvate, 2 mM L-Glutamine and G418 (500 μg/ml).
as §1
The currents were evoked by applying 100 ms depolarizing pulses from −90 mV (holding potential) to +40 mV were applied with 0.1 Hz frequency. […] 10 second breaks were used between pulse trains (see Table A below).
Data were sampled at 10 kHz without filtering. Passive leak currents were subtracted online using a P/4 procedure (HEKA Elektronik Dr. Schulze GmbH). […] Total compound incubation time before the next pulse train was not longer than 10 seconds. Peak current inhibition was observed during compound equilibration.
(In general: The patch-clamp technique gives a direct electrical read-out from membranes.)

Where [1] appears, read: CHO-K1 cells stably expressing hERG, whole cell current inhibition, read-out: hERG IC50.

T1 sequence (Q12809 whole entry): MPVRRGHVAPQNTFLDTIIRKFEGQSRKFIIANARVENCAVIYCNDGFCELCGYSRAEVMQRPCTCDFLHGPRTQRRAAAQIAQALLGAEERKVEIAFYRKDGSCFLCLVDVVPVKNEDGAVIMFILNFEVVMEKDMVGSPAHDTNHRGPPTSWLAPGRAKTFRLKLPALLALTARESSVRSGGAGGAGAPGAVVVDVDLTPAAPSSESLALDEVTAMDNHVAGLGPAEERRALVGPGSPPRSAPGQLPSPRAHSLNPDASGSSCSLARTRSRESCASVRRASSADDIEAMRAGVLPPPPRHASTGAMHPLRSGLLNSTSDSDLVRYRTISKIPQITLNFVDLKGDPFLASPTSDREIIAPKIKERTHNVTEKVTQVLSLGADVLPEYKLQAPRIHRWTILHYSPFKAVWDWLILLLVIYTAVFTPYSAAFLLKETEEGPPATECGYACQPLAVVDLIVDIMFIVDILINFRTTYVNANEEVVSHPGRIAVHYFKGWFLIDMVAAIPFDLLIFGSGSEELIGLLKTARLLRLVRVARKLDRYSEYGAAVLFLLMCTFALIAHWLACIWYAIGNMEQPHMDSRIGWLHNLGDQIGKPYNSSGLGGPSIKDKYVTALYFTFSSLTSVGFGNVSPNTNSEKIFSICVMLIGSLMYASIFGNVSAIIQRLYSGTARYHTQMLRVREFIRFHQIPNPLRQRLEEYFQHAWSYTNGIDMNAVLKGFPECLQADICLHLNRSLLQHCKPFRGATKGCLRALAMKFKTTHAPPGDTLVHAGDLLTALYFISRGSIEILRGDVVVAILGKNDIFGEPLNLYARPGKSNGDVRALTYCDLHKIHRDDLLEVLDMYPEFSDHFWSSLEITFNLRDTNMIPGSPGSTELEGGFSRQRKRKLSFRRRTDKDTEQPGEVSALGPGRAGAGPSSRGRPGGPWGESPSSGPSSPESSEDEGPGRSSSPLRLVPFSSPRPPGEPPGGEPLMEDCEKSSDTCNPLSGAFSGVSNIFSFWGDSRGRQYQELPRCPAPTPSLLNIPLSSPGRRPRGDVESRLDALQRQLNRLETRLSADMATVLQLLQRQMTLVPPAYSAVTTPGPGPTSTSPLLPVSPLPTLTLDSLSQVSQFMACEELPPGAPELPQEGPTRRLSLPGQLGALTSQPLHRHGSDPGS
T2 sequence (P22001 whole entry): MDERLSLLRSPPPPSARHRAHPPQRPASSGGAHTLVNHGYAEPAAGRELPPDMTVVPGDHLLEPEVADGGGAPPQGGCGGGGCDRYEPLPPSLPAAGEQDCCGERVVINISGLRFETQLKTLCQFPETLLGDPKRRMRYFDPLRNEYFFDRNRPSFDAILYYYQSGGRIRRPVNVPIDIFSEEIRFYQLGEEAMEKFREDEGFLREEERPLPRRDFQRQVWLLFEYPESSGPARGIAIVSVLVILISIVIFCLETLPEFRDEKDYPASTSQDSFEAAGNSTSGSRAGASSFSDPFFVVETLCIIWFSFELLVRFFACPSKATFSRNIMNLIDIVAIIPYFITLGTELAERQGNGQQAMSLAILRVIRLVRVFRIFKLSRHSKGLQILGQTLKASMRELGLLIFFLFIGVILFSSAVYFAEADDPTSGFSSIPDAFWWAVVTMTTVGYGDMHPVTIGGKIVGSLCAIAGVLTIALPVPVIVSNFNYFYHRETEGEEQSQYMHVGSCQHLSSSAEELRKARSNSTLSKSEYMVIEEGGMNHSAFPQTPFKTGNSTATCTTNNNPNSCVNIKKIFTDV

As for `Oc1cc(Cl)c(Cl)cc1CN1CCC2(CCO2)CC1` [Compound 57, 4,5-dichloro-2-[1-oxa-7-azaspiro[3.5]nonan-7-ylmethyl]phenol], the IC50 was less than 30 µM on hERG channel (setting [1]) and less than 10 µM at Kv1.3 potassium channel.
Consider `NCC1(CO)CCN(Cc2cc(Cl)c(Cl)cc2O)CC1` [Compound 5, 2-[[4-(aminomethyl)-4-(hydroxymethyl)piperidin-1-yl]methyl]-4,5-dichlorophenol], for which the half-maximal inhibitory concentration (IC50) was less than 30 µM at hERG channel (setting [1]) and less than 1 µM at Kv1.3 potassium channel.
Taken in the same sequence, the figures for `NC(=O)C1CCN(Cc2cc(Cl)c(Cl)cc2O)CC1` [Compound 62, l-(4,5-dichloro-2-hydroxybenzyl) piperidine-4-carboxamide] were less than 30 µM and less than 10 µM.
Taken in the same sequence, the figures for `OCC1CCCN(Cc2cc(Cl)c(Cl)cc2O)C1` (stereo not drawn) [Compound 45, 4,5-dichloro-2-[[3-(hydroxymethyl)piperidin-1-yl]methyl]phenol] were less than 30 µM and less than 10 µM.
`OCC1CN(Cc2cc(Cl)c(Cl)cc2O)CCO1` (stereo not drawn) [Compound 52, 4,5-dichloro-2-[[2-(hydroxymethyl)morpholin-4-yl]methyl]phenol]: the IC50 at hERG channel (human, pH 7.4, CHO-K1 cells stably expressing hERG, whole cell current inhibition, read-out: hERG IC50) is 30 µM; at Kv1.3 potassium channel, less than 10 µM.
As for `OCC1CN(Cc2cc(Cl)c(Cl)cc2O)C1` [Compound 32, 4,5-dichloro-2-[[3-(hydroxymethyl)azetidin-1-yl]methyl]phenol], the values for the IC50 on hERG channel (setting [1]) and on Kv1.3 potassium channel were less than 30 µM and less than 10 µM, respectively.
On to `OCC1(c2ccccc2)CCN(Cc2cc(Cl)c(Cl)cc2O)CC1` [Compound 22, 4,5-dichloro-2-[[4-(hydroxymethyl)-4-phenylpiperidin-1-yl]methyl]phenol], for which the IC50 was less than 30 µM on hERG channel (setting [1]) and less than 1 µM at Kv1.3 potassium channel.
Consider `Oc1cc(Cl)c(Cl)cc1CN1CCC(O)CC1` [Compound 55, 1-[(4,5-dichloro-2-hydroxyphenyl)methyl] piperidin-4-ol], for which the IC50 at hERG channel (setting [1]) was less than 30 µM; at Kv1.3 potassium channel, less than 10 µM.
Taken in the same sequence, the figures for `OCC1CCN(Cc2cc(Cl)c(Cl)cc2O)C1` (stereo not drawn) [Compound 44, 4,5-dichloro-2-[[3-(hydroxymethyl)pyrrolidin-1-yl]methyl]phenol] were less than 30 µM and less than 10 µM.
For `CN(C)C(=O)C1CCN(Cc2cc(Cl)c(Cl)cc2O)CC1` [Compound 66, 1-(4,5-dichloro-2-hydroxybenzyl)-N,N-dimethylpiperidine-4-carboxamide], the values for the IC50 on hERG channel (setting [1]) and at Kv1.3 potassium channel were less than 30 µM and less than 10 µM, respectively.
On to `Oc1cc(Cl)c(Cl)cc1CN1CCc2[nH]ncc2C1` [Compound 25, 4,5-dichloro-2-((6,7-dihydro-1H-pyrazolo[4,3-c]pyridin-5(4H)-yl)methyl)phenol], for which the IC50 at hERG channel (setting [1]) was less than 30 µM; at Kv1.3 potassium channel it was less than 10 µM.
Taken in the same sequence, the figures for `CC1(CO)CCN(Cc2cc(Cl)c(Cl)cc2O)CC1` [Compound 53, 4,5-dichloro-2-[[4-(hydroxymethyl)-4-methylpiperidin-1-yl]methyl] phenol] were less than 30 µM and less than 10 µM.
On to `COCC1CCN(Cc2cc(Cl)c(Cl)cc2O)CC1` [Compound 56, 4,5-dichloro-2-[[4-(methoxymethyl)piperidin-1-yl]methyl]phenol], for which the IC50 on hERG channel (setting [1]) was less than 30 µM; on Kv1.3 potassium channel, less than 10 µM.
Taken in the same sequence, the figures for `NCC1CCN(Cc2cc(Cl)c(Cl)cc2O)CC1` [Compound 61, 2-((4-(aminomethyl)piperidin-1-yl)methyl)-4,5-dichlorophenol] were less than 30 µM and less than 1 µM.
Turning to `N#CC1(CO)CCN(Cc2cc(Cl)c(Cl)cc2O)CC1` [Compound 54, 1-[(4,5-dichloro-2-hydroxyphenyl)methyl]-4-(hydroxymethyl)piperidine-4-carbonitrile], the IC50 was less than 30 µM at hERG channel (setting [1]) and less than 10 µM on Kv1.3 potassium channel.
In the case of `Cc1cc(O)c(CN2CCC(CO)CC2)cc1Cl` [Compound 19, 4-chloro-2-[[4-(hydroxymethyl)piperidin-1-yl]methyl]-5-methylphenol], the IC50 is more than 30 µM on hERG channel (setting [1]) and less than 1 µM at Kv1.3 potassium channel.
As for `CC(=O)N1CCN(Cc2cc(Cl)c(Cl)cc2O)CC1` [Compound 49, 1-[4-[(4,5-dichloro-2-hydroxyphenyl)methyl]piperazin-1-yl]ethan-1-one], the IC50 on hERG channel (setting [1]) is less than 30 µM; at Kv1.3 potassium channel, less than 10 µM.
With `O=C(C1CCN(Cc2cc(Br)c(Br)cc2O)CC1)N1CCCC1` [Compound 63, (1-(4,5-dibromo-2-hydroxybenzyl)piperidin-4-yl)(pyrrolidin-1-yl)methanone], the results for the IC50 at hERG channel (setting [1]) and on Kv1.3 potassium channel were less than 30 µM and less than 1 µM, respectively.
Taken in the same sequence, the figures for `Oc1cc(Cl)c(Cl)cc1CN1CCC(c2ccn[nH]2)CC1` [Compound 30, 2-((4-(1H-pyrazol-5-yl)piperidin-1-yl)methyl)-4,5-dichlorophenol] were less than 30 µM and less than 10 µM.
With `CC(C)(O)C1CCN(Cc2cc(Cl)c(Cl)cc2O)CC1` [Compound 50, 4,5-dichloro-2-[[4-(2-hydroxypropan-2-yl)piperidin-1-yl]methyl]phenol], the figures for the half-maximal inhibitory concentration (IC50) on hERG channel (setting [1]) and at Kv1.3 potassium channel were less than 30 µM and less than 10 µM, respectively.
With `Oc1cc(Cl)c(Cl)cc1CN1CCC2(CC1)COCC2O` (stereo not drawn) [Compound 40], the IC50 at hERG channel is less than 30 µM; on Kv1.3 potassium channel it was less than 1 µM.
For the molecule `Oc1cc(Cl)c(Cl)cc1CN1CCC(C2CCOCC2)CC1` [Compound 20, 4,5-dichloro-2-[[4-(oxan-4-yl)piperidin-1-yl]methyl]phenol], the results for the IC50 at hERG channel (setting [1]) and on Kv1.3 potassium channel were less than 30 µM and less than 1 µM, respectively.
For `CC1CCN(Cc2cc(Cl)c(Cl)cc2O)CC1` [Compound 64, 4,5-dichloro-2-((4-methylpiperidin-1-yl)methyl)phenol], the IC50 on hERG channel (setting [1]) was less than 30 µM; on Kv1.3 potassium channel, less than 10 µM.
Turning to `Oc1cc(Cl)c(Cl)cc1CN1CCC2(CC1)OCCC2O` (stereo not drawn) [Compound 26, 8-(4,5-dichloro-2-hydroxybenzyl)-1-oxa-8-azaspiro[4.5]decan-4-ol], the IC50 on hERG channel (setting [1]) is less than 30 µM; at Kv1.3 potassium channel it was less than 1 µM.
Taken in the same sequence, the figures for `CC(=O)NC1(CO)CCN(Cc2cc(Cl)c(Cl)cc2O)CC1` [Compound 12, N-[1-[(4,5-dichloro-2-hydroxyphenyl)methyl]-4-(hydroxymethyl)piperidin-4-yl]acetamide] were more than 30 µM and less than 1 µM.
For `CCC(c1cc(Cl)c(Cl)cc1O)N1CCC(CO)CC1` (stereo not drawn) [Compound 18, 4,5-dichloro-2-[1-[4-(hydroxymethyl)piperidin-1-yl]propyl]phenol], the IC50 on hERG channel (setting [1]) was less than 30 µM; on Kv1.3 potassium channel, less than 10 µM.
With `CC(=O)NCC1(CO)CCN(Cc2cc(Cl)c(Cl)cc2O)CC1` [Compound 21, N-([1-[(4,5-dichloro-2-hydroxyphenyl)methyl]-4-(hydroxymethyl)piperidin-4-yl]methyl)acetamide], the IC50 was less than 30 µM on hERG channel (setting [1]) and less than 1 µM on Kv1.3 potassium channel.

The record behind these values is patent publication US20220411367A1, “ARYLMETHYLENE HETEROCYCLIC COMPOUNDS AS KV1.3 POTASSIUM SHAKER CHANNEL BLOCKERS” (D. E. Shaw Research, LLC, priority 2019, published 2022).
